Earlier results on one compound are cited in patent US9233112B2, “Pharmaceutical compositions of cefixime” (LUPIN LIMITED, priority 2006, dated 2016).

Regarding `C=CC1=C(C(=O)O)N2C(=O)[C@@H](NC(=O)/C(=N\OCC(=O)O)c3csc(N)n3)[C@H]2SC1` [Cefixime], the Solubility in water result is on record as “poorly soluble in water”.
